Assay results: US20050075388A1 (published 2005)

| Structure (SMILES) | melting point |
| --- | --- |
| O=c1oc2cc(O)ccc2c(O)c1-c1coc2c1c(=O)oc1cc(O)ccc12 | > 300 °C |
| CCOC1Oc2c(c(=O)oc3ccccc23)C1c1c(O)c2ccccc2oc1=O (stereo not shown) | 166 to 169 °C |
| O=c1oc2c(O)c(O)ccc2c(O)c1C(CCCC(c1c(O)c2ccc(O)c(O)c2oc1=O)c1c(O)c2ccc(O)c(O)c2oc1=O)c1c(O)c2ccc(O)c(O)c2oc1=O | > 300 °C |
| O=Cc1ccccc1C(c1c(O)c2ccc(O)cc2oc1=O)c1c(O)c2ccc(O)cc2oc1=O | > 300 °C |
| O=c1oc2cc(O)c(O)cc2c(O)c1C(CCCC(c1c(O)c2cc(O)c(O)cc2oc1=O)c1c(O)c2cc(O)c(O)cc2oc1=O)c1c(O)c2cc(O)c(O)cc2oc1=O | > 300 °C |
| O=c1oc2cc(O)cc(O)c2c(O)c1C(CCCC(c1c(O)c2c(O)cc(O)cc2oc1=O)c1c(O)c2c(O)cc(O)cc2oc1=O)c1c(O)c2c(O)cc(O)cc2oc1=O | > 300 °C |
| O=c1oc2ccccc2c(O)c1C(CC(c1c(O)c2ccccc2oc1=O)c1c(O)c2ccccc2oc1=O)c1c(O)c2ccccc2oc1=O | 286 to 288 °C |
| O=c1oc2cc(O)c(O)cc2c(O)c1C1=CCOc2oc3ccccc3c(=O)c21 | 258 to 260 °C |
| O=CC(c1c(O)c2ccc(O)cc2oc1=O)c1c(O)c2ccc(O)cc2oc1=O | > 300 °C |
| O=Cc1ccccc1C(c1c(O)c2ccc(O)c(O)c2oc1=O)c1c(O)c2ccc(O)c(O)c2oc1=O | > 300 °C |
| COC1Oc2c(c(=O)oc3cc(O)ccc23)C1c1c(O)c2ccc(O)cc2oc1=O (stereo not shown) | > 300 °C |
| O=c1oc2cc(O)cc(O)c2c(O)c1C1=CCOc2oc3ccccc3c(=O)c21 | 254 to 256 °C |
| O=c1oc2cc(O)ccc2c(O)c1C(CCCC(c1c(O)c2ccc(O)cc2oc1=O)c1c(O)c2ccc(O)cc2oc1=O)c1c(O)c2ccc(O)cc2oc1=O | 299 to 302 °C |
| O=c1oc2ccccc2c(O)c1C1c2ccccc2Oc2c1c(=O)oc1ccccc21 (stereo not shown) | > 255 °C (dec.) |
| O=c1oc2ccccc2c(O)c1C(CCCC(c1c(O)c2ccccc2oc1=O)c1c(O)c2ccccc2oc1=O)c1c(O)c2ccccc2oc1=O | 291 to 294 °C |
| O=c1oc2cc(O)cc(O)c2c(O)c1C1c2ccccc2Oc2c1c(=O)oc1cc(O)cc(O)c21 (stereo not shown) | > 300 °C |
